ChEMBL document CHEMBL4651402, “Screening of ~5500 FDA-approved drugs and clinical candidates for anti-SARS-CoV-2 activity” (2021)

Tested on: SARS-CoV-2
Assay: microbe, parasite or virus in culture
Conditions: Severe acute respiratory syndrome coronavirus 2, Vero C1008, 48 h

| SMILES | IC50 | IC50 (read-out: pIC50 (converted)) |
| --- | --- | --- |
| Clc1ccc(C(OCCN2CCCCC2)c2ccccc2)cc1 (stereo not given) [CLOPERASTINE] | > 20 µM | > 20 µM |
| Cc1nc(C)c(Cl)c(O)c1Cl [CLOPIDOL] | > 20 µM | > 20 µM |
| O=c1[nH]c2cc(Cl)ccc2n1C1CCN(CCCC(c2ccc(F)cc2)c2ccc(F)cc2)CC1 [CLOPIMOZIDE] | > 20 µM | > 20 µM |
| Cc1cc(CC(=O)O)c(C)n1-c1ccc(Cl)cc1 [CLOPIRAC] | > 20 µM | > 20 µM |
| C#CCN(C)CCCOc1ccc(Cl)cc1Cl [CLORGILINE] | > 20 µM | > 20 µM |
| O=C1c2ccccc2C(=O)C1c1ccc(Cl)cc1 [CLORINDIONE] | > 20 µM | > 20 µM |
| O=C(CCCN1CCC(C(=O)c2ccc(Cl)cc2)CC1)c1ccc(F)cc1 [CLOROPERONE] | > 20 µM | > 20 µM |
| CN1CCN(C2Cc3ccccc3Sc3ccc(Cl)cc32)CC1 (stereo not given) [CLOROTEPINE] | > 20 µM | > 20 µM |
| CC(C)NCC(O)c1ccccc1Cl (stereo not given) [CLORPRENALINE] | > 20 µM | > 20 µM |
| Nc1cc(C(Cl)=C(Cl)Cl)c(S(N)(=O)=O)cc1S(N)(=O)=O [CLORSULON] | > 20 µM | > 20 µM |
| CC(C)(N)Cc1ccccc1Cl [CLORTERMINE] | > 20 µM | > 20 µM |
| Cc1cc(C(C#N)c2ccc(Cl)cc2)c(Cl)cc1NC(=O)c1cc(I)cc(I)c1O (stereo not given) [CLOSANTEL] | > 20 µM | > 20 µM |
| CN1CCN(C2=Nc3ccccc3Sc3ccc(Cl)cc32)CC1 [CLOTHIAPINE] | > 20 µM | > 20 µM |
| Clc1ccccc1C(c1ccccc1)(c1ccccc1)n1ccnc1 [CLOTRIMAZOLE] | > 20 µM | > 20 µM |
| Cc1onc(-c2ccccc2Cl)c1C(=O)N[C@@H]1C(=O)N2[C@@H]1SC(C)(C)[C@@H]2C(=O)O [CLOXACILLIN] | > 20 µM | > 20 µM |
| O=C1CN2CCOC2(c2ccccc2Cl)c2cc(Cl)ccc2N1 (stereo not given) [CLOXAZOLAM] | > 20 µM | > 20 µM |
| Oc1ccc(Cl)c2cccnc12 [CLOXYQUIN] | > 20 µM | > 20 µM |
| CN1CCN(C2=Nc3cc(Cl)ccc3Nc3ccccc32)CC1 [CLOZAPINE] | > 20 µM | > 20 µM |
| COC(=O)[C@H]1[C@@H](OC(=O)c2ccccc2)C[C@@H]2CC[C@H]1N2C [COCAINE] | > 20 µM | > 20 µM |
| C=C[C@@]1(C)CC(=O)[C@]2(O)[C@@]3(C)[C@@H](O)CCC(C)(C)[C@@H]3[C@H](O)[C@H](OC(C)=O)[C@@]2(C)O1 [COLFORSIN] | > 20 µM | > 20 µM |
| CC(C)(C)NCC(O)c1ccc(O)c(O)c1 (stereo not given) [COLTEROL] | > 20 µM | > 20 µM |
| COc1ccc(/C=C\c2cc(OC)c(OC)c(OC)c2)cc1O [COMBRETASTATIN A4] | > 20 µM | > 20 µM |
| C[C@@H]1O[C@@H](O[C@H]2CC[C@]3(C=O)[C@H]4CC[C@]5(C)[C@@H](C6=CC(=O)OC6)CC[C@]5(O)[C@@H]4CC[C@]3(O)C2)[C@H](O)[C@H](O)[C@H]1O [CONVALLATOXIN] | > 20 µM | > 20 µM |
| Nc1ncnc2c1ncn2[C@@H]1O[C@H](CO)C[C@H]1O [CORDYCEPIN] | > 20 µM | > 20 µM |
| CCOC[C@]12Cc3cnn(-c4ccc(F)cc4)c3C=C1CCN(S(=O)(=O)c1ccc(C(F)(F)F)cc1)C2 [CORT 108297] | > 20 µM | > 20 µM |
| C[C@]12C[C@H](O)[C@H]3[C@@H](CCC4=CC(=O)CC[C@@]43C)[C@@H]1CC[C@@H]2C(=O)CO [CORTICOSTERONE] | > 20 µM | > 20 µM |
| CC(=O)OCC(=O)[C@@]1(O)CC[C@H]2[C@@H]3CCC4=CC(=O)CC[C@]4(C)[C@H]3C(=O)C[C@@]21C [CORTISONE ACETATE] | > 20 µM | > 20 µM |
| C[C@]12CCC(=O)C=C1CC[C@@H]1[C@@H]2CC[C@@]2(C)[C@H]1CC[C@]2(O)C(=O)CO [CORTODOXONE] | > 20 µM | > 20 µM |

| SMILES | IC50 | IC50 (read-out: pIC50 (converted)) |
| --- | --- | --- |
| COc1c2c(cc3c1OCO3)CC[N+](C)=C2 [COTARNINE] | > 20 µM | > 20 µM |
| CN1C(=O)CC[C@H]1c1cccnc1 [COTININE] | > 20 µM | > 20 µM |
| CCOP(=S)(OCC)Oc1ccc2c(C)c(Cl)c(=O)oc2c1 [COUMAPHOS] | > 20 µM | > 20 µM |
| O=c1ccc2ccccc2o1 [COUMARIN] | > 20 µM | > 20 µM |
| CC(=O)Nc1ccc(C(=O)NC(C)(C)C)cc1 [CP1-1189] | > 20 µM | > 20 µM |
| COc1ccccc1CN[C@H]1CCCN[C@H]1c1ccccc1 [CP-99994] | > 20 µM | > 20 µM |
| COCC(=O)NC/C=C/c1ccc2ncnc(Nc3ccc(Oc4ccc(C)nc4)c(C)c3)c2c1 [CP-724714] | > 20 µM | > 20 µM |
| CCc1nc2c(N)nc3ccccc3c2n1CCCCNS(C)(=O)=O [CPG-52852] | > 20 µM | > 20 µM |
| O=C(O)CCCCC(CCSCc1ccccc1)SCc1ccccc1 (stereo not given) [CPI 613] | > 20 µM | > 20 µM |
| COc1cc(C)[nH]c(=O)c1CNC(=O)c1c(C)n([C@H](C)C2CCN(CC(F)(F)F)CC2)c2ccccc12 [CPI-1205] | > 20 µM | > 20 µM |
| CNC(=O)c1nnc(NC(=O)C2CC2)cc1Nc1cccc(-c2ncn(C)n2)c1OC [CRAVACITINIB] | > 20 µM | > 20 µM |
| CN(CC(=O)O)C(=N)N [CREATINE] | > 20 µM | > 20 µM |
| CN1CC(=O)NC1=N [CREATININE] | > 20 µM | > 20 µM |
| CC1(COc2ccc3c(c2)ncn3-c2ccc3cccc(N4CCC(N)CC4)c3n2)COC1 [CRENOLANIB] | > 20 µM | > 20 µM |
| C[C@@H](Oc1cc(-c2cnn(C3CCNCC3)c2)cnc1N)c1c(Cl)ccc(F)c1Cl [CRIZOTINIB] | > 20 µM | > 20 µM |
| O=C(O)c1cc(=O)c2c(OCC(O)COc3cccc4oc(C(=O)O)cc(=O)c34)cccc2o1 [CROMOLYN] | > 20 µM | > 20 µM |
| CC(C)c1cnn2c(NCc3ccccc3)cc(NC[C@H]3CCNC[C@@H]3O)nc12 [CT-7001] | > 20 µM | > 20 µM |
| CN(C)c1cc2c(cc1Sc1nc3c(N)nccc3n1CCNCC(C)(C)C)OCO2 [CUDC-305] | > 20 µM | > 20 µM |
| O=C(c1ccc2nccnc2c1)N1CCCCC1 [CX516] | > 20 µM | > 20 µM |
| O=C(c1ccc2nonc2c1)N1CCOCC1 [CX-717] | > 20 µM | > 20 µM |
| N#CCC(=O)NN [CYACETACIDE] | > 20 µM | > 20 µM |
| Oc1cc(O)c2cc(O)c(-c3ccc(O)c(O)c3)[o+]c2c1 [CYANIDIN] | > 20 µM | > 20 µM |
| CC1(C)S[C@@H]2[C@H](NC(=O)C3(N)CCCCC3)C(=O)N2[C@H]1C(=O)O [CYCLACILLIN] | > 20 µM | > 20 µM |
| O=S(=O)(O)NC1CCCCC1 [CYCLAMIC ACID] | > 20 µM | > 20 µM |
| CC1CC(OC(=O)C(O)c2ccccc2)CC(C)(C)C1 (stereo not given) [CYCLANDELATE] | > 20 µM | > 20 µM |
| CN(C)C1CCc2[nH]c3ccccc3c2C1 (stereo not given) [CYCLINDOLE] | > 20 µM | > 20 µM |
| CN1CCN(C(c2ccccc2)c2ccccc2)CC1 [CYCLIZINE] | > 20 µM | > 20 µM |
